{"source": "patent EP4332093A1", "about": "“SALT CONTAINING PIPERAZINE POLYCYCLIC DERIVATIVE, CRYSTAL FORM THEREOF, PREPARATION METHOD THEREFOR, AND USE THEREOF” (Shanghai Hansoh Biomedical Co., Ltd., priority 2021, dated 2022)", "key": {"[1]": {"target": "5-HT2A receptor (Homo sapiens, UniProt P28223)", "sequence (P28223 whole entry)": "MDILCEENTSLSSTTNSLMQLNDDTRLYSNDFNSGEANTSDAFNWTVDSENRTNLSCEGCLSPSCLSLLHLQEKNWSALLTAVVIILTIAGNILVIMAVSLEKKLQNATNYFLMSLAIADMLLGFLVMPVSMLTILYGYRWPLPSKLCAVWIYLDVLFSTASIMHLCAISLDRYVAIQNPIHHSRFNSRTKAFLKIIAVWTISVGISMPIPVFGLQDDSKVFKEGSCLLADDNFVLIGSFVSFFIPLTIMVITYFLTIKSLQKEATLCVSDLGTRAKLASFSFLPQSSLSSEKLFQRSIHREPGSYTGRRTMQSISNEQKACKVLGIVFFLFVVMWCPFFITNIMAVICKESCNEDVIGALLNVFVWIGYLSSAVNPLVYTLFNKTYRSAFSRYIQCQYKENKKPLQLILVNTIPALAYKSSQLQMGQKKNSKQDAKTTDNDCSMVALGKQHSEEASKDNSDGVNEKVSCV", "assay": "Radioligand binding assay, 5-HT2A receptor ([3H]-Ketanserin)", "parameters": "purchased PerkinElmer", "conditions": "Human 5-HT2A Receptor membrane, [3H]-Ketanserin 2 nM; read-out: 5HT-2A Binding IC50"}, "[2]": {"target": "T1, dopamine D3 receptor (Homo sapiens, UniProt P35462)", "T1 construct": "purchased PerkinElmer ES-173-M400UA", "T1 sequence (P35462 whole entry)": "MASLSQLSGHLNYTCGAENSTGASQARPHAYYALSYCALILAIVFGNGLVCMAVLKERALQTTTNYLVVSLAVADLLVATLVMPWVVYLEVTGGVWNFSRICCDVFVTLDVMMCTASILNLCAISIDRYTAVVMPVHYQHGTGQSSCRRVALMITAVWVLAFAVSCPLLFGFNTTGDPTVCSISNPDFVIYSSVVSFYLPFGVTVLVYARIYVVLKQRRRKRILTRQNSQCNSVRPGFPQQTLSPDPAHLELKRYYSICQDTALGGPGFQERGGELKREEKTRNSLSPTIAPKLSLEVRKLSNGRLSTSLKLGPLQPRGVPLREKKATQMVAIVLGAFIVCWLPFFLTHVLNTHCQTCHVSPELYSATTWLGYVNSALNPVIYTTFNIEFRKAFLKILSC", "assay": "Radioligand binding assay, dopamine D3 receptor ([3H]-methylspiperone)", "conditions": "Human Dopamine D3 Receptor membrane, [3H]-methylspiperone 0.5 nM"}, "[3]": {"system": "rats", "assay": "Pharmacodynamic model of active escape experiment in rats", "type": "in vivo", "conditions": "F344 rats, oral, Dose 1 mg/kg, one hour before the test; Vehicle 91-98%", "protocol": "To evaluate the anti-schizophrenic effect of the compounds using the pharmacodynamic model of the active escape experiment in rats.\nA certain mass (such as 1.0 g) of CMC-Na was weighed into a glass bottle. A certain volume (such as 200 mL) of purified water was added. The resulting mixture was stirred to disperse evenly. 1% (v/v) Tween 80 was added according to the solution volume, and the resulting mixture was stirred overnight to obtain a homogeneous clear solution, which was stored at 2 to 8°C for later use.\nA prescription amount of the compound was weighed, followed by the addition of a prescription volume of 0.5% CMC-Na+1% Tween 80 solution. […]\nThe actual sample amount needs to be calculated during the formulation and administration of the compound solution. […]\nThe current intensity was 0.6 mA and the duration was 10 seconds. […] This would be recorded as escape failures, and the single training ended; • 5.1.5 Each animal was trained 30 times a day for a total of 6 days, and returned to the cage after the training. • 5.2 Baseline test and grouping […]\nThe following data was collected by the software for data analysis: • Number of avoids of the animal; • Number of escape failures of the animal; • Escape latency of the animal; • All measurement data were expressed as mean ± standard error (Mean ± SEM), and analyzed by Graphpad 6 statistical software. […]"}}, "data": [{"smiles": "O=C(N[C@H]1C[C@@H](CCN2CCN(c3cccc(Cl)c3Cl)CC2)C1)c1ncco1", "note": "[Example 12B, N-(Cis-3-(2-(4-(2,3-dichlorophenyl)piperazin-1-yl)ethyl)cyclobutyl)oxazole-2-carbo xamide]", "values": [{"measurement": "IC50", "setting": "[1]", "value": 8.73, "unit": "nM"}, {"measurement": "IC50", "setting": "[2]", "value": 2.54, "unit": "nM"}]}, {"smiles": "O=C(NC1CC(CCN2CCN(c3cccc(Cl)c3Cl)CC2)C1)c1ncco1", "note": "(stereo not drawn) [Example 12, N-(3-(2-(4-(2,3-Dichlorophenyl)piperazin-1-yl)ethyl)cyclobutyl)oxazole-2-carboxamide]", "values": [{"measurement": "CAR value", "setting": "[3]", "value": 30, "unit": "%"}]}, {"smiles": "O=C(N[C@H]1C[C@H](CCN2CCN(c3cccc(Cl)c3Cl)CC2)C1)c1cccc2ncccc12", "note": "[Example 19A, N-(Trans-3-(2-(4-(2,3-dichlorophenyl)piperazin-1-yl)ethyl)cyclobutyl)quinoline-5-c arboxamide]", "values": [{"measurement": "IC50", "setting": "[1]", "value": 1.89, "unit": "nM"}, {"measurement": "IC50", "setting": "[2]", "value": 0.4, "unit": "nM"}]}, {"smiles": "O=C(N[C@H]1C[C@H](CCN2CCN(c3cccc(Cl)c3Cl)CC2)C1)C1(O)CC1", "note": "[Example 6A, N-(Trans-3-(2-(4-(2,3-dichlorophenyl)piperazin-1-yl)ethyl)cyclobutyl)-1-hydroxycy clopropane-1-carboxamide]", "values": [{"measurement": "IC50", "setting": "[1]", "value": 5.77, "unit": "nM"}, {"measurement": "IC50", "setting": "[2]", "value": 0.75, "unit": "nM"}]}, {"smiles": "O=C(N[C@H]1C[C@H](CCN2CCN(c3cccc(Cl)c3Cl)CC2)C1)c1nccs1", "note": "[Example 7A, N-(Trans-3-(2-(4-(2,3-dichlorophenyl)piperazin-1-yl)ethyl)cyclobutyl)thiazole-2-car boxamide]", "values": [{"measurement": "IC50", "setting": "[1]", "value": 0.79, "unit": "nM"}, {"measurement": "IC50", "setting": "[2]", "value": 0.44, "unit": "nM"}]}, {"smiles": "O=C(N[C@H]1C[C@H](CCN2CCN(c3cccc(Cl)c3Cl)CC2)C1)c1ncco1", "note": "[Example 12A, N-(Trans-3-(2-(4-(2,3-dichlorophenyl)piperazin-1-yl)ethyl)cyclobutyl)oxazole-2-car boxamide]", "values": [{"measurement": "IC50", "setting": "[1]", "value": 4.19, "unit": "nM"}, {"measurement": "CAR value", "setting": "[3]", "value": 18.5, "unit": "%"}, {"measurement": "IC50", "setting": "[2]", "value": 0.37, "unit": "nM"}]}]}
